Consider two compounds from patent US20240207203A1, “NOVEL USE” (DSM IP Assets B.V., priority 2021, published 2024).

Assay [1] relates to methane production in rumen liquor. Nature of the assay: In vitro test for methane production (modified Hohenheim Forage value Test, HFT). In kind it is cell-based. The settings on record: TMR feed, 8 h at 39° C., average of four to eight experiments. The protocol:
In vitro test for methane production: A modified version of the “Hohenheim Forage value Test (HFT)” was used for testing the effect of specific compounds on the rumen functions mimicked by this in-vitro system.
Principle: Feed is gadded into a syringe with a composition of rumen liquor and an appropriate mixture of buffers. The solution is incubated at 39° C. After 8 hours the quantity (and composition) of gas phase produced is measured and put into a formula for conversion.
Sample weighing: The feed stuff (i.e. TMR (44% concentrate, 6% hay, 37% maize silage and 13% grass silage) is sieved to 1 mm and weighed exactly into 64 syringes. 4 of these syringes are the substrate controls, which display the gas production without the effect of the tested compounds. 4 other syringes are positive control (3-NOP, 10 µM). When needed, 4 syringes contain a carrier control (if the test compounds need a carrier). The remaining syringes contain the test substances, by groups of 4 syringes, in the amounts as indicated in table 1.
Extraction of the rumen liquor: 750 ml of rumen liquor are added to approximately 1,400 ml of medium solution under continued agitation and CO2-gassing.
Filling the syringes, incubation and determining gas volumes and VFA values: The diluted rumen fluid (24 ml) is added to the glass syringe. The syringes are then incubated for 8 hours at 39° C. under gentle agitation. After 8 hours, the volume of gas produced is measured, and the percentage of methane in the gas phase is determined by gas chromatography.
The food fermented was artificial TMR (44% concentrate, 6% hay, 37% maize silage and 13% grass silage). Gossypol was obtained from Sigma-Aldrich (G8761), and used at a concentration as outlined in table 1.3-Nitrooxy-propanol (3-NOP) was used at the concentration as outlined in table 1. The respective in vitro data was linked to dosage regimes correlating to the same methane reduction in vivo.

In assay [2] the test system is methane production in ruminants. The settings on record: reported in WO2012/084629; cited from earlier work.

As for `Cc1cc2c(C(C)C)c(O)c(O)c(C=O)c2c(O)c1-c1c(C)cc2c(C(C)C)c(O)c(O)c(C=O)c2c1O` [G, Gossypol], the “Total methane change, found” value in assay [1] (single substance at 5 μM) is given as −1 % vs. control; in assay [1] (single substance at 10 μM), −11 % vs. control; in assay [1] (single substance at 20 μM), −15 % vs. control; in assay [1] (single substance at 100 μM) it was −69 % vs. control.
On to `O=[N+]([O-])OCCCO` [3-NOP, 3-Nitrooxypropanol], for which the “Total methane change, found” value was −12 % vs. control in assay [1] (single substance at 2.5 μM), −54 % vs. control in assay [1] (single substance at 5 μM) and −98 % vs. control in assay [1] (single substance at 10 μM). Also, the “Reduction of methane production in ruminants (in words)” value in assay [2] is reported as “significantly reduce the methane production”.
